Counter-ions that a name gives are not always drawn.
Columns and labels:
Assay type in all cases: cell-based
MYB mRNA [1] = experiment: Gene panel canonical junction qPCR assay, decrease in CJ mRNA, Table 3; conditions: decrease in canonical junction (CJ) mRNA, gene panel qPCR, Table 3
Summary of the method: (§1)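 IC50 is the concentration giving 50% response in decrease of the canonical junction transcript, fitted with a 4-parameter logistic equation. Transcripts were quantified by RT-qPCR in A673 or K562 cells after 24 h exposure to compounds dosed up to 10 uM in 3-fold steps.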

HTT mRNA [2] = experiment: as above; conditions: decrease in canonical junction (CJ) mRNA, gene panel qPCR, Table 3
Summary of the method: as §1

[3] = system: SH-SY5Y (human neuroblastoma) cells; experiment: Cell viability, Cell Titer Glo 2.0 assay; conditions: read-out: Viability SHSY5Y.3 GI50
Summary of the method: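 Steps: serial DMSO dilution of compound, 1:100 dilution into medium, addition to cells (0.1% DMSO final). Incubate 72 h at 37 °C, 5% CO2. Assay with CellTiter-Glo 2.0 reagent.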

MYB mRNA [4] = experiment: Splicing RT-qPCR assay (THP), Table 2A; conditions: Table 2A (THP); for AC50: AJ mRNA increase, read-out: MYB AJ (increase in alternative junction mRNA, AC50); for IC50: CJ mRNA decrease, read-out: MYB CJ (decrease in canonical junction mRNA, IC50)
HTT mRNA [5] = experiment: Splicing RT-qPCR assay (THP), Table 2A; conditions: Table 2A (THP); for AC50: AJ mRNA increase, read-out: HTT AJ (increase in alternative junction mRNA, AC50); for IC50: CJ mRNA decrease, read-out: HTT CJ (decrease in canonical junction mRNA, IC50)

| SMILES | IC50 (MYB mRNA [1]) [nM] | IC50 (HTT mRNA [2]) [nM] | GI50 [3] [nM] | AC50 (MYB mRNA [4]) [nM] | IC50 (MYB mRNA [4]) [nM] | AC50 (HTT mRNA [5]) [nM] | IC50 (HTT mRNA [5]) [nM] |
| --- | --- | --- | --- | --- | --- | --- | --- |
| Cc1cn2cc(NC(=O)c3ccc(N4CC5CNCC5C4)c4cn(C)nc34)nc2c(C)n1 (stereo not drawn) [Compound 526] | 1000 to 10000 | 1000 to 10000 | 1000 to 10000 | 1000 to 10000 | 1000 to 10000 | 1000 to 10000 | 1000 to 10000 |
| CNCC1CCN(c2ccc(C(=O)Nc3cn4cc(C)nc(C)c4n3)c3nn(C)cc23)C1 (stereo not drawn) [Compound 527] | 100 to 1000 | 100 to 1000 | 100 to 1000 | 100 to 1000 | 100 to 1000 | 100 to 1000 | 100 to 1000 |
| Cc1cn2cc(NC(=O)c3ccc(N4CCC(N5CCNCC5)C4)c4cn(C)nc34)nc2c(C)n1 (stereo not drawn) [Compound 528] | 100 to 1000 | 100 to 1000 | 100 to 1000 | 100 to 1000 | 100 to 1000 | 100 to 1000 | 100 to 1000 |
| Cc1cn2cc(NC(=O)c3ccc(N4CCC5(CCCN5)CC4)c4cn(C)nc34)nc2c(C)n1 [Compound 529] | 100 to 1000 | > 10000 | 1000 to 10000 | 100 to 1000 | 100 to 1000 | > 10000 | > 10000 |
| Cc1cn2cc(NC(=O)c3ccc(N4CCC5NCC5C4)c4cn(C)nc34)nc2c(C)n1 (stereo not drawn) [Compound 530] | 1000 to 10000 | > 10000 | > 10000 | > 10000 | 1000 to 10000 | > 10000 | > 10000 |
| Cc1cn2cc(NC(=O)c3ccc(N4CCC5NCCC5C4)c4cn(C)nc34)nc2c(C)n1 (stereo not drawn) [Compound 531] | 1000 to 10000 | > 10000 | 1000 to 10000 | 1000 to 10000 | 1000 to 10000 | > 10000 | > 10000 |
| CNCC1CCN(c2ccc(C(=O)Nc3cn4cc(C)nc(C)c4n3)c3nn(C)cc23)CC1 [Compound 532] | 100 to 1000 | 100 to 1000 | 100 to 1000 | 100 to 1000 | 100 to 1000 | 100 to 1000 | 100 to 1000 |
| Cc1cn2cc(NC(=O)c3ccc(N4CCN(C5CNC5)CC4)c4cn(C)nc34)nc2c(C)n1 [Compound 533] | 100 to 1000 | 100 to 1000 | 100 to 1000 | 100 to 1000 | 100 to 1000 | 100 to 1000 | 100 to 1000 |
| CNCC1CCCN(c2ccc(C(=O)Nc3cn4cc(C)nc(C)c4n3)c3nn(C)cc23)C1 (stereo not drawn) [Compound 534] | > 10000 | > 10000 | > 10000 | > 10000 | > 10000 | > 10000 | > 10000 |
| Cc1cn2cc(NC(=O)c3ccc(N4CCNC(C)CC4)c4cn(C)nc34)nc2c(C)n1 (stereo not drawn) [Compound 535] | 1000 to 10000 | 1000 to 10000 | 1000 to 10000 | 1000 to 10000 | 1000 to 10000 | 1000 to 10000 | 1000 to 10000 |
| Cc1cn2cc(NC(=O)c3ccc(NC4CCCNCC4)c4cn(C)nc34)nc2c(C)n1 (stereo not drawn) [Compound 536] | > 10000 | > 10000 | > 10000 | > 10000 | > 10000 | > 10000 | > 10000 |
| Cc1cn2cc(NC(=O)c3ccc(OC4CCNC4)c4cn(C)nc34)nc2c(C)n1 (stereo not drawn) [Compound 537] | > 10000 | > 10000 | > 10000 | > 10000 | > 10000 | > 10000 | > 10000 |
| CNCC1CCN(c2ccc(C(=O)Nc3cc4cn(C)nc4cc3OC)c3nn(C)cc23)C1 (stereo not drawn) [Compound 538] | 100 to 1000 | > 10000 | 1000 to 10000 | 100 to 1000 | 100 to 1000 | > 10000 | > 10000 |
| COc1cc2nn(C)cc2cc1NC(=O)c1ccc(N2CCC(N3CCNCC3)C2)c2cn(C)nc12 (stereo not drawn) [Compound 539] | > 10000 | > 10000 | > 10000 | > 10000 | > 10000 | 1000 to 10000 | > 10000 |
| COc1cc2nn(C)cc2cc1NC(=O)c1ccc(N2CCC3(CCN3)CC2)c2cn(C)nc12 [Compound 540] | < 100 | 1000 to 10000 | 1000 to 10000 | < 100 | < 100 | 1000 to 10000 | 1000 to 10000 |
| COc1cc2nn(C)cc2cc1NC(=O)c1ccc(N2CCC3(CCCN3)CC2)c2cn(C)nc12 [Compound 541] | < 100 | 100 to 1000 | 1000 to 10000 | < 100 | < 100 | 100 to 1000 | 100 to 1000 |
| COc1cc2nn(C)cc2cc1NC(=O)c1ccc(N2CCC3NCC3C2)c2cn(C)nc12 (stereo not drawn) [Compound 542] | 1000 to 10000 | > 10000 | > 10000 | 100 to 1000 | 1000 to 10000 | > 10000 | > 10000 |
| COc1cc2nn(C)cc2cc1NC(=O)c1ccc(N2CCC3NCCC3C2)c2cn(C)nc12 (stereo not drawn) [Compound 543] | 100 to 1000 | 1000 to 10000 | 1000 to 10000 | 100 to 1000 | 100 to 1000 | 1000 to 10000 | 1000 to 10000 |
| COc1cc2nn(C)cc2cc1NC(=O)c1ccc(N2CCN(C3CNC3)CC2)c2cn(C)nc12 [Compound 544] | 100 to 1000 | 100 to 1000 | 100 to 1000 | 100 to 1000 | 100 to 1000 | 100 to 1000 | 100 to 1000 |
| CNCC1CCCN(c2ccc(C(=O)Nc3cc4cn(C)nc4cc3OC)c3nn(C)cc23)C1 (stereo not drawn) [Compound 545] | 1000 to 10000 | > 10000 | 1000 to 10000 | 1000 to 10000 | 1000 to 10000 | > 10000 | > 10000 |
| COc1cc2nn(C)cc2cc1NC(=O)c1ccc(N2CCNC(C)CC2)c2cn(C)nc12 (stereo not drawn) [Compound 546] | 100 to 1000 | > 10000 | 1000 to 10000 | 100 to 1000 | 100 to 1000 | > 10000 | > 10000 |
| COc1cc2nn(C)cc2cc1NC(=O)c1ccc(NC2CCCNCC2)c2cn(C)nc12 (stereo not drawn) [Compound 547] | 1000 to 10000 | 1000 to 10000 | > 10000 | 1000 to 10000 | 1000 to 10000 | 1000 to 10000 | 1000 to 10000 |
| COc1cc2nn(C)cc2cc1NC(=O)c1ccc(N(C)C2CCNCC2)c2cn(C)nc12 [Compound 548] | 100 to 1000 | > 10000 | 1000 to 10000 | 100 to 1000 | 100 to 1000 | > 10000 | > 10000 |
| Cc1cn2cc(NC(=O)c3ccc(N4C[C@H](C)N[C@@H](C)C4)c4cn(C)nc34)nc2c(C)n1 [Compound 549] | 1000 to 10000 | > 10000 | > 10000 | 1000 to 10000 | 1000 to 10000 | > 10000 | > 10000 |
| COc1cc2nn(C)cc2cc1NC(=O)c1ccc(N2C[C@H](C)N[C@@H](C)C2)c2cn(C)nc12 [Compound 553] | 100 to 1000 | 1000 to 10000 | 1000 to 10000 | < 100 | 100 to 1000 | 1000 to 10000 | 1000 to 10000 |
| Cc1cn2cc(NC(=O)c3ccc(N4CCNC(C)C4)c4cn(C)nc34)nc2c(C)n1 (stereo not drawn) [Compound 557] | 100 to 1000 | > 10000 | 1000 to 10000 | 100 to 1000 | 100 to 1000 | > 10000 | > 10000 |
| CC1OB(O)c2ccc(NC(=O)c3c(F)cc(N4CCC(NC5CC5)CC4)c4cn(C)nc34)cc21 (stereo not drawn) [Compound 558, 4-(4-(cyclopropyl-amino)piperidin-1-yl)-6-fluoro-N-(1-hydroxy-3-methyl-1,3-dihydrobenzo[c]-[1,2]oxaborol-5-y1)-2-methyl-2H-indazole-7-carboxamide hydrochloride] | 1000 to 10000 | > 10000 | 100 to 1000 | 1000 to 10000 | 1000 to 10000 | > 10000 | > 10000 |
| Cc1cc2sc(NC(=O)c3ccc(N4CCC(NC5CC5)CC4)c4cn(C)nc34)cc2c(C)n1 [Compound 559, 4-[4-(cyclopropylamino)-1-piperidyl]-N-(4,6-dimethyl-thieno[3,2-c]-pyridin-2-yl)-2-methyl-indazole-7-carboxamide] | 1000 to 10000 | 1000 to 10000 | 1000 to 10000 | 1000 to 10000 | 1000 to 10000 | 1000 to 10000 | 1000 to 10000 |
| CCNC1CCN(c2ccc(C(=O)Nc3cn(C)c(=O)cc3OC)c3nn(C)cc23)CC1 [Compound 560, 4-[4-(ethylamino)-1-piperidyl]-N-(4-methoxy-1-methyl-6-oxo-3-pyridyl)-2-methyl-indazole-7-carboxamide] | 1000 to 10000 | > 10000 | > 10000 | > 10000 | 1000 to 10000 | > 10000 | > 10000 |
| CCNC1CCN(c2ccc(C(=O)Nc3cc(C)c(=O)n(C)c3)c3nn(C)cc23)CC1 [Compound 561, N-(1,5-dimethyl-6-oxo-3-pyridyl)-4-[4-(ethylamino)-1-piperidyl]-2-methyl-indazole-7-carboxamide] | 1000 to 10000 | > 10000 | > 10000 | > 10000 | 1000 to 10000 | > 10000 | > 10000 |

Reference: patent US20260285853A1, “COMPOUNDS AND METHODS FOR MODULATING SPLICING” (REMIX THERAPEUTICS INC., priority 2023, published 2026)
